According to patent US6083957A, “Heterocyclic compounds and their preparation and use” (Novo Nordisk A/S, priority 1996, dated 2000):
pIC50: −log10 of the molar value.

Experiments:
[1] = target: muscarinic acetylcholine receptors; experiment: inhibition of specific binding of 3H-Oxotremorine-M (3H-Oxo), rat cortex homogenate; design: species or system male Wistar rats; settings: 1.0 nM 3H-Oxotremorine, pH 7.4, 30 min, 25° C
From the text: The pharmacological properties of the compounds of the invention can be illustrated by determining their capability to inhibit the specific binding of ^3 H-Oxotremorine-M (^3 H-Oxo). Birdsdall N. J. M., Hulme E. C., and Burgen A. S. V. (1980). "The Character of Muscarinic Receptors in Different Regions of the Rat Brain". Proc. Roy. Soc. London (Series B) 207,1.
The inhibitory effects of compounds on ^3 H-Oxo binding reflects the affinity for muscarinic acetylcholine receptors.
All preparations are performed at 0-4° C. unless otherwise indicated. Fresh cortex (0.1-1 g) from male Wistar rats (150-250 g) is homogenized for 5-10 s in 10 ml 20 mM Hepes pH: 7.4, with an Ultra-Turrax homogenizer. The homogenizer is rinsed with 10 ml of buffer and the combined suspension centrifuged for 15 min. at 40,000×g. The pellet is washed three times with buffer. In each step the pellet is homogenized as before in 2×10 ml of buffer and centrifuged for 10 min. at 40,000×g.
The final pellet is homogenized in 20 mM Hepes pH: 7.4 (100 ml per g of original tissue) and used for binding assay. Aliquots of 0.5 ml is added 25 ul of test solution and 25 ul of ^3 H-Oxotremorine (1.0 nM, final concentration) mixed and incubated for 30 min. at 25° C. Non-specific binding is determined in triplicate using arecoline (1 ug/ml, final concentration) as the test substance. After incubation samples are added 5 ml of ice-cold buffer and poured directly onto Whatman GF/C glass fiber filters under suction and immediately washed 2 times with 5 ml of ice-cold buffer. The amount of radioactivity on the filters are determined by conventional liquid scintillation counting. Specific binding is total binding minus non specific binding.
Test substances are dissolved in 10 ml water (if necessary heated on a steam-bath for less than 5 min.) at a concentration of 2.2 mg/ml. 25-75% inhibition of specific binding must be obtained before calculation of IC50.
The test value will be given as IC50 (the concentration (nM) of the test substance which inhibits the specific binding of ^3 H-Oxo by 50%).
(§1) IC50 =(applied test substance concentration) [formula] where Co is specific binding in control assays and Cx is the specific binding in the test assay. (The calculations assume normal mass-action kinetics).

[2] = target: T1, subtype of muscarinic receptors (M1-site) (Rattus norvegicus, UniProt P08482); experiment: inhibition of 3H-PRZ (pirenzepine, [N-methyl-3H]) binding to rat cerebral cortex membranes; design: species or system male Wistar rats; settings: 1.0 nM 3H-Pirenzepine, pH 7.4, 60 min, 20° C, read-out: IC50, 3H-Pz
T1 construct: from tissue; host or cells: rat cerebral cortex membranes (male Wistar rats)
T1 sequence (P08482 1-460): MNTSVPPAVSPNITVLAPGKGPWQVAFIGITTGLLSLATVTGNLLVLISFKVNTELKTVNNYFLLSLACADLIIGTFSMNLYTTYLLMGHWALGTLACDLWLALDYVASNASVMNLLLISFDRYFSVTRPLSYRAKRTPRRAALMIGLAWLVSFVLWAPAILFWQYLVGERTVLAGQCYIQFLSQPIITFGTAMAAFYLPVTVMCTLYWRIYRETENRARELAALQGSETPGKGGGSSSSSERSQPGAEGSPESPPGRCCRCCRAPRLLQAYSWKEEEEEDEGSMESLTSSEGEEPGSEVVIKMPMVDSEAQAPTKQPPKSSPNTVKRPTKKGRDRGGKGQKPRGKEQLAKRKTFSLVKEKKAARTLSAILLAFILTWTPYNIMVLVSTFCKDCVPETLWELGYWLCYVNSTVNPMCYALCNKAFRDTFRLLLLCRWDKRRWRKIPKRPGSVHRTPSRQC
From the text: Furthermore the pharmacological properties of the compounds of the invention can also be illustrated by determining their capability to inhibit ^3 H-PRZ (pirenzepine, [N-methyl-^3 H]) binding to rat cerebral cortex membranes.
Pirenzepine binds selectively to subtype of muscarinic receptors. Historically the type is named the M1 -site, whereas pirenzepine sensitive site would be more appropriate. Although selective for M1 -sites pirenzepine also interact with M2 -sites.
All preparations are performed at 0-4° C. unless otherwise indicated. Fresh cortex (0.1-1 g) from male Wistar rats (150-200 g) is homogenized for 5-10 s. in 10 ml 20 mM Hepes pH: 7.4, with an Ultra-Turraxhomogenizer. The homogenizer is rinzed with 2×10 ml of buffer and the combined suspension centrifuged for 15 min at 40,000 xg. The pellet is washed three times with buffer. In each step the pellet is homogenized as before in 3×10 ml of buffer and centrifuged for 10 min at 40,000 xg.
The final pellet is homogenized in 20 mM Hepes pH: 7.4 (100 ml per g of original tissue) and used for binding assay. Aliquots of 0.5 ml is added 20 μl of test solution and 25 μl of ^3 H-Pirenzepine·(1.0 nM, final conc.), mixed and incubated for 60 min at 20° C. Non-specific binding is determined in triplicate using atropine (1 μg/ml, final conc.) as the test substance. After incubation samples are added 5 ml of ice-cold buffer and poured directly onto Whatman GF/C glass fiber filters inder suction and immediately washed 2 times with 5 ml of ice-cold buffer. The amount of radioactivity on the filters are determined by conventional liquid scintillation counting. Specific binding is total binding minus non-specific binding.
Test substances are dissolved in 10 ml water, at a concentration of 0.22 mg/ml. 25-75% inhibition of specific binding must be obtained before calculation of IC50.
The test value will be given as IC50 (the concentration, nM) of the test substance which inhibits the specific binding of ^3 H-PRZ by 50%.
as §1

SMILES	pIC50 [1]	pIC50 [2]
C[N+]12CCCC(C1)C(c1nsnc1OCC#Cc1ccsc1)C2 (single isomer, unassigned) [Compound 11, Exo(+) 6-(3-(3-(3-Thienyl)-2-propyn-1-yloxy)-1,2,5-thiadiazol-4-yl)-1-azabicyclo[3.2.1]-octane iodide]	7.46	
CCSc1nsnc1C1=CCC[N+](C)(C)C1 [Compound 9, 3-(3-Ethylthio-1,2,5-thiadiazol-4-yl)-1,2,5,6-tetrahydro-1,1-dimethylpyridinium iodide]	8.80	7.59
CCCCCSc1nsnc1[C@H]1C[N@@+]2(C)CCC[C@@H]1C2 (relative stereo) [Compound 6, Endo 6-(3-Pentylthio-1,2,5-thiadiazol-4-yl)-1-methyl-1-azabicyclo[3.2.1]octane iodide]	8.32	8.64
CCCCCSc1nsnc1[C@@H]1C[N@@+]2(C)CCC[C@@H]1C2 (relative stereo) [Compound 7, Exo 6-(3-Pentylthio-1,2,5-thiadiazol-4-yl)-1-methyl-1-azabicyclo[3.2.1]octane iodide]	8.31	6.87
CCCCSc1nsnc1C1C[N+]2(C)CCC1CC2 (centres unmarked) [Compound 4, 3-(3-Butylthio-1,2,5-thiadiazol-4-yl)-1-methyl-1-azabicyclo[2.2.2]octane iodide]	8.82	8.31
C[N+]12CCCC(C1)C(c1nsnc1SCC#Cc1ccccc1)C2 (single isomer, unassigned) [Compound 13, Exo(+) 6-(3-(3-(3-Phenyl)-2-propyn-1-ylthio)-1,2,5-thiadiazol-4-yl)-1-azabicyclo[3.2.1]-octane iodide]	7.89	
CCSc1nsnc1C1=CCC[N+](C)(CC)C1 (centres unmarked) [Compound 8, 3-(3-Ethylthio-1,2,5-thiadiazol-4-yl)-1,2,5,6-tetrahydro-1-ethyl-1-methylpyridinium iodide]	8.46	7.55
CCCCCCOc1nsnc1C1=CCC[N+](C)(C)C1 [Compound 2, 3-(3-Hexyloxy-1,2,5-thiadiazol-4-yl)-1,2,5,6-tetrahydro-1,1-dimethylpyridinium iodide]	8.48	8.05
CCCCSc1nsnc1[C@H]1C[N@@+]2(C)CCC[C@@H]1C2 (relative stereo) [Compound 5, Endo 6-(3-Butylthio-1,2,5-thiadiazol-4-yl)-1-methyl-1-azabicyclo[3.2.1]octane iodide]	8.48	8.06
CCCCCCSc1nsnc1C1=CCC[N+](C)(C)C1 [Compound 1, 3-(3-Hexylthio-1,2,5-thiadiazol-4-yl)-1,2,5,6-tetrahydro-1,1-dimethylpyridinium iodide]	8.47	8.22
CCOc1nsnc1C1=CCC[N+](C)(CC)C1 (centres unmarked) [Compound 10, 3-(3-Ethoxy-1,2,5-thiadiazol-4-yl)-1,2,5,6-tetrahydro-1-ethyl-1-methyl-pyridinium iodide]	7.81	7.25
CCOc1nsnc1C1=CCC[N+](C)(C)C1 [Compound 3, 3-(3-Ethoxy-1,2,5-thiadiazol-4-yl)-1,2,5,6-tetrahydro-1,1-dimethylpyridinium iodide]	9.23	8.35
C[N+]12CCCC(C1)C(c1nsnc1OCC#Cc1cccs1)C2 (single isomer, unassigned) [Compound 12, Exo(+) 6-(3-(3-(2-Thienyl)-2-propyn-1-yloxy)-1,2,5-thiadiazol-4-yl)-1-azabicyclo[3.2.1]-octane iodide]	7.20	
